Patent US10947260B2, “Phosphinolactone derivatives and pharmaceutical uses thereof” (INSTITUT NATIONAL DE LA SANTE ET DE LA RECHERCHE MEDICALE …, priority 2016, dated 2021)

Experiments:
[1] = system: mice; assay: Forced swim test; format: in vivo; details: 5 mg/kg
Method: FIG. 13: Assays of compound 3b as positive modulator of the sigma-1 protein. […] Male Swiss mice aged 7 weeks (n=10-12 per group) were forced to swim for 15 min on Day 1 and 6 min on Day 2. They were given NE-100 (10 mg/kg ip), 10 min before compound 3b (10 mg/kg ip) and 20 min before the session of Day 2. Immobility was measured over the last 5 minutes of the session. The vehicle solution was distilled water. F(3.42)=4.45, p<0.01; **p<0.01 vs. group V/V, ##p<0.01 vs. group V/3b, Dunnet test. […] Wild-type mice (Wt, n=14-15) and S1R KO mice (n=9-10) were forced to swim 15 min on Day 1 and 6 min on Day 2. They were given compound 3b (10 mg/kg ip) 20 min before the session on Day 2. Immobility was measured during the last 5 minutes of the session. The vehicle solution was distilled water. F(3.49)=6.64, p<0.001; **p<0.01 vs. group Wt/V, Dunnett test. […] Male Swiss mice aged 7 weeks (n=8-23 per group) were forced to swim for 15 min on Day 1 and 6 min on Day 2. They were given igmesine (10, 30 mg/kg ip) and/or compound 3b (10 mg/kg ip) 20 min before the session on Day 2. NE-100 (10 mg/kg ip) was injected 10 min before igmesine and compound 3b. Immobility was measured during the last 5 minutes of the session. The vehicle solution was distilled water. F(6.90)=5.59, p<0.0001; ***p<0.001 vs. group V, ##p<0.01 vs. group V/Igmesine (10)+3B (5), Dunnett test.

[2] = system: mice treated with scopolamine; assay: Spontaneous alternation in Y-maze, scopolamine amnesia model; format: in vivo; details: IP; scopolamine model
Method: FIG. 5: Anti-amnesic effect of compound 3b in mice treated with scopolamine: (a, b) spontaneous alternation in Y-maze, and (c, d) passive avoidance. The mice were given compound 3b (0.03-1.5 mg/kg IP) 10 min before scopolamine (0.5 mg/kg SC), 20 min before the Y-maze session or passive avoidance training. Y-maze test: (a) spontaneous alternation and (b) total number of arm entries; retention of passive avoidance: (c) step-through latency and (d) escape latency. ANOVA: F(6.94)=5.32, p<0.0001 at (a); F(6.94)=10.6, p<0.0001 at (b); H=31.4, p<0.0001 at (c); H=24.3, p<0.001 at (d); n=12-19 per group. *p<0.05, **p<0.01, ***p<0.001 compared with group (Sc.Aβ+V); #p<0.05, ##p<0.01, ###p<0.001 compared with group (Aβ25-35+V); Dunnett test at (a, b) and Dunn at (c, d).
FIG. 6: Analysis of the antagonism of anti-amnesic effects of compound 3b in mice treated with scopolamine: (a, c, e) spontaneous alternation in Y-maze, and (b, d, f) step-through latency at recall session of passive avoidance. The mice were treated with methyllycaconitine (MLA, 1 or 3 mg/kg IP), dihydro-ß-erythroidine (DHßE, 1 or 3 mg/kg IP), or NE100 (1 mg/kg IP), simultaneously with compound 3b (0.1 mg/kg IP) 10 min before scopolamine (S, 0.5 mg/kg SC), 20 min before behavioural session. ANOVA: F(5.87)=7.19, p<0.0001 at (a); H=31.3, p<0.0001 at (b); F(5.82)=5.82, p<0.0001 at (c); H=28.8, p<0.0001 at (d); F(4.77)=10.0, p<0.0001 at (e); H=30.5, p<0.0001 at (f); n=12-17 per group. *p<0.05, **p<0.01, ***p<0.001 compared with group (Sc.Aβ+V); #p<0.05, ##p<0.01, ###p<0.001 compared with group (Aβ25-35+V); Dunnett test at (a, b) and Dunn at (c, d).
The animals were tested for spontaneous alternation performance in a Y-maze, an index of spatial working memory. The Y-maze was in grey PVC. Each arm was 40 cm long, 13 cm high, 3 cm wide at the base and 10 cm wide in the upper part, and converging at an equal angle. Each mouse was placed at one end of an arm and was able to move freely through the maze during an 8-min session. The series of arm entries, including any returns in the same arm were visually analysed. Alternation is defined as being consecutive entries in three different arms. The maximum number of alternations is therefore the total number of arm entries less two, and alternation percentage is calculated as (actual alternations/maximum possible alternations)×100. […]
Finally, a first mechanistic analysis of the pharmacological effect in vivo of compound 3b was carried out. With the objective of confirming that the compound, neuroprotective against amyloid toxicity, could also be anti-amnesic in a pharmacological amnesia model, we first determined its effectiveness against the amnesic effects of scopolamine. […]

Structure (SMILES): CC1(C)COP(=O)(c2cccc(Cl)c2)C(C)(C)N1 (racemic) [Compound 3b, (±)-2-(3-Chlorophenyl)-2-oxo-3,3,5,5-tetramethyl-[1,4,2]-oxazaphosphinane]
- activity in forced swim test [1]: not active
- effective dose (anti-amnesic) [2]: 0.1 mg/kg
